Measurements published in the NIST ThermoML archive (doi:10.1016/j.jct.2013.10.034).

Test: xn = mol fraction of the nth substance listed
Details: 100 kPa, Liquid; for viscosity: Falling or rolling sphere viscometry; for mass density: Vibrating tube method

CCCC[N+]1(C)CCCC1.N#CN=C=[N-] [1-butyl-1-methylpyrrolidinium dicyanamide] + O
Details	mass density [kg/m3]	viscosity [mPa·s]
298.15 K, x1 = 0.0729	1007.24	4.316
298.15 K, x1 = 0.1652	1012.47	7.983
298.15 K, x1 = 0.2234	1014.18	9.939
298.15 K, x1 = 0.3163	1015.68	12.88
298.15 K, x1 = 0.3548	1016.11	13.94
298.15 K, x1 = 0.4198	1016.65	15.86
298.15 K, x1 = 0.4762	1016.99	17.41
298.15 K, x1 = 0.5239	1017.27	18.57
298.15 K, x1 = 0.6244	1017.71	21.49
298.15 K, x1 = 0.629	1017.73	21.62
298.15 K, x1 = 0.711	1018.09	24.03
298.15 K, x1 = 0.7413	1018.22	24.99
298.15 K, x1 = 0.8776	1018.79	29.68
298.15 K, x1 = 0.9732	1019.13	33.6
298.15 K, x1 = 1	1019.2	34.74
303.15 K, x1 = 0.0729	1004.74	3.713
303.15 K, x1 = 0.1652	1009.29	6.795
303.15 K, x1 = 0.2234	1010.84	8.502
303.15 K, x1 = 0.3163	1012.43	11.02
303.15 K, x1 = 0.3548	1012.9	11.96
303.15 K, x1 = 0.4198	1013.55	13.57
303.15 K, x1 = 0.4762	1014	14.9
303.15 K, x1 = 0.5239	1014.32	15.9
303.15 K, x1 = 0.6244	1014.87	18.37
303.15 K, x1 = 0.629	1014.89	18.48
303.15 K, x1 = 0.711	1015.28	20.5
303.15 K, x1 = 0.7413	1015.41	21.31
303.15 K, x1 = 0.8776	1015.96	25.19
303.15 K, x1 = 0.9732	1016.28	28.4
303.15 K, x1 = 1	1016.38	29.33
308.15 K, x1 = 0.0729	1001.6	3.226
308.15 K, x1 = 0.1652	1006.1	5.903
308.15 K, x1 = 0.2234	1007.7	7.346
308.15 K, x1 = 0.3163	1009.37	9.521
308.15 K, x1 = 0.3548	1009.87	10.37
308.15 K, x1 = 0.4198	1010.57	11.73
308.15 K, x1 = 0.4762	1011.05	12.88
308.15 K, x1 = 0.5239	1011.4	13.75
308.15 K, x1 = 0.6244	1011.99	15.87
308.15 K, x1 = 0.629	1012.02	15.96
308.15 K, x1 = 0.711	1012.42	17.69
308.15 K, x1 = 0.7413	1012.56	18.34
308.15 K, x1 = 0.8776	1013.13	21.64
308.15 K, x1 = 0.9732	1013.47	24.32
308.15 K, x1 = 1	1013.58	25.09
313.15 K, x1 = 0.0729	998.69	2.83
313.15 K, x1 = 0.1652	1002.9	5.143
313.15 K, x1 = 0.2234	1004.59	6.408
313.15 K, x1 = 0.3163	1006.34	8.303
313.15 K, x1 = 0.3548	1006.88	9
313.15 K, x1 = 0.4198	1007.61	10.23
313.15 K, x1 = 0.4762	1008.11	11.23
313.15 K, x1 = 0.5239	1008.46	12
313.15 K, x1 = 0.6244	1009.1	13.83
313.15 K, x1 = 0.629	1009.13	13.91
313.15 K, x1 = 0.711	1009.55	15.4
313.15 K, x1 = 0.7413	1009.72	15.98
313.15 K, x1 = 0.8776	1010.35	18.78
313.15 K, x1 = 0.9732	1010.72	21.05
313.15 K, x1 = 1	1010.79	21.7
318.15 K, x1 = 0.0729	995.65	2.5
318.15 K, x1 = 0.1652	999.68	4.486
318.15 K, x1 = 0.2234	1001.37	5.632
318.15 K, x1 = 0.3163	1003.18	7.302
318.15 K, x1 = 0.3548	1003.78	7.982
318.15 K, x1 = 0.4198	1004.58	9.005
318.15 K, x1 = 0.4762	1005.15	9.9
318.15 K, x1 = 0.5239	1005.54	10.57
318.15 K, x1 = 0.6244	1006.25	12.17
318.15 K, x1 = 0.629	1006.28	12.24
318.15 K, x1 = 0.711	1006.71	13.55
318.15 K, x1 = 0.7413	1006.88	14.02
318.15 K, x1 = 0.8776	1007.51	16.46
318.15 K, x1 = 0.9732	1007.94	18.4
318.15 K, x1 = 1	1008	18.95
323.15 K, x1 = 0.0729	992.46	2.233
323.15 K, x1 = 0.1652	996.43	3.985
323.15 K, x1 = 0.2234	998.16	4.99
323.15 K, x1 = 0.3163	1000.13	6.467
323.15 K, x1 = 0.3548	1000.71	7.043
323.15 K, x1 = 0.4198	1001.58	7.978
323.15 K, x1 = 0.4762	1002.18	8.763
323.15 K, x1 = 0.5239	1002.64	9.377
323.15 K, x1 = 0.6244	1003.38	10.79
323.15 K, x1 = 0.629	1003.41	10.85
323.15 K, x1 = 0.711	1003.92	12
323.15 K, x1 = 0.7413	1004.07	12.45
323.15 K, x1 = 0.8776	1004.69	14.56
323.15 K, x1 = 0.9732	1005.09	16.24
323.15 K, x1 = 1	1005.23	16.72
328.15 K, x1 = 0.0729	989.39	2.005
328.15 K, x1 = 0.1652	993.17	3.59
328.15 K, x1 = 0.2234	994.93	4.448
328.15 K, x1 = 0.3163	997.04	5.765
328.15 K, x1 = 0.3548	997.72	6.295
328.15 K, x1 = 0.4198	998.6	7.116
328.15 K, x1 = 0.4762	999.26	7.819
328.15 K, x1 = 0.5239	999.74	8.369
328.15 K, x1 = 0.6244	1000.55	9.629
328.15 K, x1 = 0.629	1000.57	9.685
328.15 K, x1 = 0.711	1001.11	10.71
328.15 K, x1 = 0.7413	1001.26	11.1
328.15 K, x1 = 0.8776	1001.89	12.96
328.15 K, x1 = 0.9732	1002.31	14.43
328.15 K, x1 = 1	1002.48	14.84
333.15 K, x1 = 0.0729	985.91	1.807
333.15 K, x1 = 0.1652	989.89	3.196
333.15 K, x1 = 0.2234	991.81	3.98
333.15 K, x1 = 0.3163	994.04	5.16
333.15 K, x1 = 0.3548	994.76	5.643
333.15 K, x1 = 0.4198	995.72	6.375
333.15 K, x1 = 0.4762	996.34	7.009
333.15 K, x1 = 0.5239	996.85	7.517
333.15 K, x1 = 0.6244	997.67	8.64
333.15 K, x1 = 0.629	997.7	8.691
333.15 K, x1 = 0.711	998.24	9.609
333.15 K, x1 = 0.7413	998.46	9.96
333.15 K, x1 = 0.8776	999.13	11.62
333.15 K, x1 = 0.9732	999.61	12.92
333.15 K, x1 = 1	999.74	13.28
338.15 K, x1 = 0.0729	982.26	1.642
338.15 K, x1 = 0.1652	986.61	2.892
338.15 K, x1 = 0.2234	988.61	3.587
338.15 K, x1 = 0.3163	990.99	4.649
338.15 K, x1 = 0.3548	991.74	5.083
338.15 K, x1 = 0.4198	992.73	5.746
338.15 K, x1 = 0.4762	993.46	6.319
338.15 K, x1 = 0.5239	993.96	6.784
338.15 K, x1 = 0.6244	994.85	7.795
338.15 K, x1 = 0.629	994.9	7.841
338.15 K, x1 = 0.711	995.49	8.671
338.15 K, x1 = 0.7413	995.67	9
338.15 K, x1 = 0.8776	996.49	10.48
338.15 K, x1 = 0.9732	996.91	11.64
338.15 K, x1 = 1	997	11.96
343.15 K, x1 = 0.0729	979.39	1.496
343.15 K, x1 = 0.1652	983.31	2.593
343.15 K, x1 = 0.2234	985.46	3.24
343.15 K, x1 = 0.3163	988.01	4.199
343.15 K, x1 = 0.3548	988.75	4.587
343.15 K, x1 = 0.4198	989.8	5.195
343.15 K, x1 = 0.4762	990.47	5.717
343.15 K, x1 = 0.5239	991.03	6.142
343.15 K, x1 = 0.6244	991.95	7.061
343.15 K, x1 = 0.629	991.96	7.103
343.15 K, x1 = 0.711	992.62	7.857
343.15 K, x1 = 0.7413	992.85	8.116
343.15 K, x1 = 0.8776	993.62	9.492
343.15 K, x1 = 0.9732	994.09	10.53
343.15 K, x1 = 1	994.28	10.82
